The values that follow come from patent US10214502B2, “Method of inhibiting apolipoprotein-E expression while increasing expression of at least one of LDL-receptor protein or AbcA1 protein comprising administering a small compound” (California State University, Fresno, priority 2016, dated 2019).

One experiment deals with apoE3. The experiment is described as follows: ELISA of apoE3 levels in conditioned media of compound-treated mouse cortical astrocyte cells. It counts as cell-based. Conditions: 10 μM compound, 24 hours, normalized to cell protein, relative to DMSO treated cells. As to the method: ApoE inhibition can be readily determined by any one of several assays and techniques known to those of ordinary skill in the art, including the enzyme-linked immunosorbant assay (ELISA). In the experimental results shown in Table 2 and FIG. 5, the ELISA assay was carried out on cortical astrocyte cells from mice. Astrocyte cells produce apoE, LDLR and AbcA1 proteins.
The experiments involved treating mouse cortical astrocyte cells with the claimed compounds at 10 μM concentration for an incubation time of 24 hrs. DMSO solvent was used as a negative control, because the compounds were dissolved in DMSO when applied to the cells.
The ELISA technique involves immobilizing an apoE-specific capture antibody to a 96-well plate, addition of sample (conditioned medium from mouse cortical astrocyte cells treated with the compound for 24 hours), and detection of the bound apoE using a second apoE-specific biotinylated antibody and streptavidin-HRP.
The Mabtech ELISA kit detects the presence of the three apoE isoforms: apoE2, apoE3, and apoE4.
To obtain the data shown in Table 2 and FIG. 5, the mouse cortical astrocyte cells were maintained in DMEM medium (Invitrogen) supplemented with 10 mM HEPES, 1 mM sodium pyruvate, 4.5 g/L glucose, 1% penicillin/streptomycin, and 10% fetal bovine growth serum (Invitrogen) at 37° C., with 5% CO2.
The cells (6×10^4 cells/24-well plate) were grown for 1 day in RPMI, followed by a 24 hour equilibration in serum-free Opti-MEM (Life Technologies). Treatments were carried out in triplicate with […] of fresh Opti-MEM containing 10 μM of compound or vehicle (0.1% DMSO) for 24 hours. […] ApoE concentration in the sample was calculated based on a standard curve derived using known amounts of purified apoE (from Biodesign).
The protein levels in the cells in the 24-well plates were measured using BCA Protein Assay Kit (from Pierce) and used to normalize the data. […] Sample apoE3 concentrations were represented relative to the DMSO treated cells.
The bars in FIG. 5 reflect the respective mean level apoE3 in the media for each compound with an indication of one […].
Background: In an ELISA, binding on a coated surface is turned into a signal by an enzyme label.
Regarding `O=S(=O)(c1cccc2ccccc12)N1CCCCC1` [Compound 122], the “ApoE3 Levels in Cell Media, Average of Three Tests” value (“ApoE3 Levels in Cell Media, Average” for short) is 92.0952 % of the DMSO control; the “ApoE3 Levels in Cell Media, Test 1” value was 100.1387 % of the DMSO control; the “ApoE3 Levels in Cell Media, Test 2” value was 96.02 % of the DMSO control; the “ApoE3 Levels in Cell Media, Test 3” value is 80.1244 % of the DMSO control.
For `CC(C)N(C(C)C)S(=O)(=O)c1ccc2ccccc2c1` [Compound 130], in that order: 89.39 % of the DMSO control, 89.06 % of the DMSO control, 79.12 % of the DMSO control and 100.0032 % of the DMSO control.
With `O=S(=O)(NCc1ccccc1)c1ccc(-c2ccccc2)cc1` [Compound 135], the “ApoE3 Levels in Cell Media, Average” value was 99.36 % of the DMSO control; the “ApoE3 Levels in Cell Media, Test 1” value is 93.55 % of the DMSO control; the “ApoE3 Levels in Cell Media, Test 2” value is 101.8388 % of the DMSO control; the “ApoE3 Levels in Cell Media, Test 3” value is on record as 102.6888 % of the DMSO control.
On the same counts, the results for `COc1ccc(NC(=O)c2ccc3ccccc3c2)cc1` [Compound 99] are 104.5892 % of the DMSO control, 106.2723 % of the DMSO control, 116.3467 % of the DMSO control and 91.15 % of the DMSO control.
On to `c1ccc2cc(CN3CCCCC3)ccc2c1` [Compound 141], for which the “ApoE3 Levels in Cell Media, Average” value is 80.31 % of the DMSO control; the “ApoE3 Levels in Cell Media, Test 1” value is 80.57 % of the DMSO control; the “ApoE3 Levels in Cell Media, Test 2” value is recorded as 95.09 % of the DMSO control; the “ApoE3 Levels in Cell Media, Test 3” value is 65.29 % of the DMSO control.
On the same counts, the results for `CCC(C)NS(=O)(=O)c1ccc(-c2ccccc2)cc1` (stereo not drawn) [Compound 132] are 86.84 % of the DMSO control, 81.51 % of the DMSO control, 85.61 % of the DMSO control and 93.42 % of the DMSO control.
On the same counts, the results for `O=C(c1ccc2ccccc2c1)N1CCCCC1` [Compound 92] are 115.1327 % of the DMSO control, 128.0284 % of the DMSO control, 127.4327 % of the DMSO control and 89.94 % of the DMSO control.
Consider `O=S(=O)(Nc1ccccc1)c1ccc2ccccc2c1` [Compound 102], for which the “ApoE3 Levels in Cell Media, Average” value is 97.14 % of the DMSO control; the “ApoE3 Levels in Cell Media, Test 1” value is 95.99 % of the DMSO control; the “ApoE3 Levels in Cell Media, Test 2” value is 98.8 % of the DMSO control; the “ApoE3 Levels in Cell Media, Test 3” value is on record as 96.62 % of the DMSO control.
Turning to `O=S(=O)(c1cccc2ccccc12)N1CCCC1` [Compound 123], the “ApoE3 Levels in Cell Media, Average” value is on record as 98.83 % of the DMSO control; the “ApoE3 Levels in Cell Media, Test 1” value was 85.69 % of the DMSO control; the “ApoE3 Levels in Cell Media, Test 2” value is 90.18 % of the DMSO control; the “ApoE3 Levels in Cell Media, Test 3” value was 120.6126 % of the DMSO control.
As for `CC(NS(=O)(=O)c1ccc2ccccc2c1)c1ccccc1` (stereo not drawn) [Compound 131], the “ApoE3 Levels in Cell Media, Average” value is 85.9 % of the DMSO control; the “ApoE3 Levels in Cell Media, Test 1” value is recorded as 78.38 % of the DMSO control; the “ApoE3 Levels in Cell Media, Test 2” value is 91.41 % of the DMSO control; the “ApoE3 Levels in Cell Media, Test 3” value is recorded as 87.92 % of the DMSO control.
For `CCN(CC)S(=O)(=O)c1cccc2ccccc12` [Compound 126], in that order: 89.15 % of the DMSO control, 93.7 % of the DMSO control, 89.1 % of the DMSO control and 84.66 % of the DMSO control.
For `O=C(Nc1ccc(Br)cc1)c1ccc2ccccc2c1` [Compound 101], in that order: 96.05 % of the DMSO control, 93.29 % of the DMSO control, 88.21 % of the DMSO control and 106.6434 % of the DMSO control.
On the same counts, the results for `O=S(=O)(NC1CCCCC1)c1cccc2ccccc12` [Compound 124] are 95.1 % of the DMSO control, 96.7646 % of the DMSO control, 90.1191 % of the DMSO control and 98.42 % of the DMSO control.
For `O=C(c1ccc2ccccc2c1)N1CCCC1` [Compound 91], the “ApoE3 Levels in Cell Media, Average” value is given as 104.6561 % of the DMSO control; the “ApoE3 Levels in Cell Media, Test 1” value is given as 126.8225 % of the DMSO control; the “ApoE3 Levels in Cell Media, Test 2” value is 87.2 % of the DMSO control; the “ApoE3 Levels in Cell Media, Test 3” value is 99.94 % of the DMSO control.
On the same counts, the results for `O=C(c1ccc2ccccc2c1)N1CCOCC1` [Compound 90] are 98.59 % of the DMSO control, 90.22 % of the DMSO control, 91.69 % of the DMSO control and 113.8441 % of the DMSO control.
For the compound `CCC(C)NS(=O)(=O)c1cccc2ccccc12` (stereo not drawn) [Compound 120], the “ApoE3 Levels in Cell Media, Average” value is reported as 88.28 % of the DMSO control; the “ApoE3 Levels in Cell Media, Test 1” value was 100.2942 % of the DMSO control; the “ApoE3 Levels in Cell Media, Test 2” value is 88.31 % of the DMSO control; the “ApoE3 Levels in Cell Media, Test 3” value is recorded as 76.25 % of the DMSO control.
As for `CCC(C)NS(=O)(=O)c1ccc2ccccc2c1` (stereo not drawn) [Compound 93], the “ApoE3 Levels in Cell Media, Average” value is given as 102.6197 % of the DMSO control; the “ApoE3 Levels in Cell Media, Test 1” value is reported as 103.3801 % of the DMSO control; the “ApoE3 Levels in Cell Media, Test 2” value is recorded as 109.2249 % of the DMSO control; the “ApoE3 Levels in Cell Media, Test 3” value is given as 95.25 % of the DMSO control.
As for `c1ccc2cc(CN3CCOCC3)ccc2c1` [Compound 138], the “ApoE3 Levels in Cell Media, Average” value is 104.8487 % of the DMSO control; the “ApoE3 Levels in Cell Media, Test 1” value is given as 103.8509 % of the DMSO control; the “ApoE3 Levels in Cell Media, Test 2” value is on record as 97.61 % of the DMSO control; the “ApoE3 Levels in Cell Media, Test 3” value is listed as 113.0808 % of the DMSO control.
On the same counts, the results for `CC(C)CNC(c1ccccc1)(c1ccccc1)c1ccc2ccccc2c1` [Triarylmethyl Amine Compound No. 43, reference compound] are 82.46 % of the DMSO control, 86.35 % of the DMSO control, 74.72 % of the DMSO control and 86.32 % of the DMSO control.
For `CC(C)CNS(=O)(=O)c1cccc2ccccc12` [Compound 121], in that order: 113.6663 % of the DMSO control, 113.2938 % of the DMSO control, 128.755 % of the DMSO control and 98.9502 % of the DMSO control.
For `CC(C)CNS(=O)(=O)c1ccc2ccccc2c1` [Compound 94], in that order: 106.8342 % of the DMSO control, 99.12 % of the DMSO control, 91.64 % of the DMSO control and 129.7451 % of the DMSO control.
As to `COc1cccc(NC(=O)c2ccc3ccccc3c2)c1` [Compound 100], the “ApoE3 Levels in Cell Media, Average” value was 84.98 % of the DMSO control; the “ApoE3 Levels in Cell Media, Test 1” value is recorded as 91.06 % of the DMSO control; the “ApoE3 Levels in Cell Media, Test 2” value is 75.01 % of the DMSO control; the “ApoE3 Levels in Cell Media, Test 3” value is 88.88 % of the DMSO control.
For the compound `CCCCN(CCCC)S(=O)(=O)c1ccc2ccccc2c1` [Compound 128], the “ApoE3 Levels in Cell Media, Average” value is 83.97 % of the DMSO control; the “ApoE3 Levels in Cell Media, Test 1” value was 85.63 % of the DMSO control; the “ApoE3 Levels in Cell Media, Test 2” value is given as 91.51 % of the DMSO control; the “ApoE3 Levels in Cell Media, Test 3” value is recorded as 74.78 % of the DMSO control.

Staying with this experiment, now noted: 10 μM, 24 hrs, ELISA of media.
With `CC(C)CNC(c1ccccc1)(c1ccccc1)c1ccc2ccccc2c1` [Triarylmethyl Amine Compound No. 43, reference compound], the “apoE (apoE3) expression compared to the control DMSO, in words” value is listed as “effectively decrease”.
